In test [1] the target is T1, GABA-A receptor; alpha-1/beta-3/gamma-2 (Homo sapiens, UniProt P14867+P18507+P28472).
T1 sequence (P14867 whole entry): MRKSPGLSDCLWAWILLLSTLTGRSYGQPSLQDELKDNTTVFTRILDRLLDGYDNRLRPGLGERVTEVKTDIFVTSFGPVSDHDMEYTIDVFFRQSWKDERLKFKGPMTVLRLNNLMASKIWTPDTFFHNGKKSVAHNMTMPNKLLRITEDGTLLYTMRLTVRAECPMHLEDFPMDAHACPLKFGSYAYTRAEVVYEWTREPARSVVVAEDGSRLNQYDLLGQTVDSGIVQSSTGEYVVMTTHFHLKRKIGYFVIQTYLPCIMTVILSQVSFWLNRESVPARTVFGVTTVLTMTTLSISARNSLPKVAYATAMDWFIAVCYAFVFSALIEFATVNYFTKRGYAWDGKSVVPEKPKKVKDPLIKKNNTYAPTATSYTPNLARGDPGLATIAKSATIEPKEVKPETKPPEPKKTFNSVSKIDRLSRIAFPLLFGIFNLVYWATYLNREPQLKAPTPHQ
T1 sequence (P18507 whole entry): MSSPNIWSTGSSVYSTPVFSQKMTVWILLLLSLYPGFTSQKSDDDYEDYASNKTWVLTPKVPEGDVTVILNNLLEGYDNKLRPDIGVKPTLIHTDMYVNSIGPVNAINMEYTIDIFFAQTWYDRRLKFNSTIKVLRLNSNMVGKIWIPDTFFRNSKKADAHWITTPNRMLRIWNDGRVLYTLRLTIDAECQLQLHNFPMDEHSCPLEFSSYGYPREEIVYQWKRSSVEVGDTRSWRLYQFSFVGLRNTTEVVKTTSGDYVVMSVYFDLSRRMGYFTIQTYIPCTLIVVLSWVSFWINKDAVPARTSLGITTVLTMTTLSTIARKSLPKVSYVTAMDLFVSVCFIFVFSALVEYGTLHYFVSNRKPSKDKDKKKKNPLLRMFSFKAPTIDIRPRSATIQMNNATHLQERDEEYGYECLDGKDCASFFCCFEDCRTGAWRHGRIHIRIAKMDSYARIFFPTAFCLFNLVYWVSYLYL
T1 sequence (P28472 whole entry): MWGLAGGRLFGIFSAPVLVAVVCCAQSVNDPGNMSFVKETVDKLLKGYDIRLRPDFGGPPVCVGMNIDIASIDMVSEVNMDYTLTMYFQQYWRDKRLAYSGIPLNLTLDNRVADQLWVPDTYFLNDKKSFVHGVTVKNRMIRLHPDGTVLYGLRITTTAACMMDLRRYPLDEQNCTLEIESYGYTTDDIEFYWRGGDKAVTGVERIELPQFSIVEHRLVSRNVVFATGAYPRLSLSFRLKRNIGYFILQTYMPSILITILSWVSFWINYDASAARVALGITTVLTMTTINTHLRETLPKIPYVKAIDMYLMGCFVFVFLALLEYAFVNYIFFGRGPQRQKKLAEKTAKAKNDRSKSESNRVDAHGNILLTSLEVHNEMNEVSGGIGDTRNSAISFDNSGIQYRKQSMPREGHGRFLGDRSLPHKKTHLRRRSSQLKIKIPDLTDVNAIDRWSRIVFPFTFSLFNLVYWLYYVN
The test is described as follows: Positive allosteric modulation of GABA-A alpha1beta3gamma2S receptor (unknown origin) expressed in Xenopus laevis oocytes assessed as increase in GABA-induced chloride current after 15 mins at -70 mV holding potential by two-microelectrode voltage clamp method. The class given is cell-based.

Test [2] addresses T2, GABA-A receptor; alpha-1/beta-2/gamma-2 (Homo sapiens, UniProt P14867+P18507+P47870).
T2 sequence (P14867 whole entry): T1 sequence (P14867 whole entry)
T2 sequence (P47870 whole entry): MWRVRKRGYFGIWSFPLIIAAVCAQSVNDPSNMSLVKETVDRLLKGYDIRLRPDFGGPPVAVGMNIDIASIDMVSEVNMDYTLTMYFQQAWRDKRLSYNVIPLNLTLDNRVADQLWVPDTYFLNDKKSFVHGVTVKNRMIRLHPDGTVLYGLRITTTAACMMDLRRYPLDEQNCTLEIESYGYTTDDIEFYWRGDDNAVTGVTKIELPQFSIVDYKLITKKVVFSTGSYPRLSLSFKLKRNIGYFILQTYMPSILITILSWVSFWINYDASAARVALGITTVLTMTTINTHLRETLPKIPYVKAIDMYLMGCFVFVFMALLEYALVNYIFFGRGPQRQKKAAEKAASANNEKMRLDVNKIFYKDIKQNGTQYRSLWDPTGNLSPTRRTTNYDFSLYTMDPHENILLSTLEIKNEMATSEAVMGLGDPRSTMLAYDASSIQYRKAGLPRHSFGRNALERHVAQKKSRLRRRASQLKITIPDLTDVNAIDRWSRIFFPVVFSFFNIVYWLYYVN
T2 sequence (P18507 whole entry): T1 sequence (P18507 whole entry)
The experiment in a line: Positive allosteric modulation of GABA-A alpha1beta2gamma2S receptor (unknown origin) expressed in Xenopus laevis oocytes assessed as increase in GABA-induced chloride current after 15 mins at -70 mV holding potential by two-microelectrode voltage clamp method. The class given is cell-based.

A further test deals with Mus musculus. The experiment in a line: Anticonvulsive activity in C57BL/6N mouse assessed as protection against 49 +/- 1.8 mg/kg pentylenetetrazole-induced seizures by measuring elevation in seizure threshold at 10 mg/kg, ip pretreated for 30 mins followed by pentylenetetrazole tail-vein infusion. The class given is functional, organism-based.
The target in test [3] is GABA-A receptor; anion channel (Rattus norvegicus) (UniProt O09028+P15431+P18506+P18508+P19969+P20236+P23574+P23576+P28471+P28473+P30191+P62813+P63079+P63138+Q91ZM7+Q9ES14). The test is described as follows: Positive allosteric modulation of GABA-A receptor in Sprague-Dawley rat primary hippocampal neurons assessed as channel-mediated tonic current at 30 uM pretreated for 300 secs followed by BMI addition for 10 secs at -70 mV holding potential by patch-clamp method (reference value: -63 pA). The test is classed as protein-complex assay. (In patch-clamp work, channel activity is measured electrically.)

In test [4] the target is T3, GABA A receptor alpha-1/beta-1/gamma-2 (Homo sapiens, UniProt P14867+P18505+P18507).
T3 sequence (P14867 whole entry): T1 sequence (P14867 whole entry)
T3 sequence (P18507 whole entry): T1 sequence (P18507 whole entry)
T3 sequence (P18505 whole entry): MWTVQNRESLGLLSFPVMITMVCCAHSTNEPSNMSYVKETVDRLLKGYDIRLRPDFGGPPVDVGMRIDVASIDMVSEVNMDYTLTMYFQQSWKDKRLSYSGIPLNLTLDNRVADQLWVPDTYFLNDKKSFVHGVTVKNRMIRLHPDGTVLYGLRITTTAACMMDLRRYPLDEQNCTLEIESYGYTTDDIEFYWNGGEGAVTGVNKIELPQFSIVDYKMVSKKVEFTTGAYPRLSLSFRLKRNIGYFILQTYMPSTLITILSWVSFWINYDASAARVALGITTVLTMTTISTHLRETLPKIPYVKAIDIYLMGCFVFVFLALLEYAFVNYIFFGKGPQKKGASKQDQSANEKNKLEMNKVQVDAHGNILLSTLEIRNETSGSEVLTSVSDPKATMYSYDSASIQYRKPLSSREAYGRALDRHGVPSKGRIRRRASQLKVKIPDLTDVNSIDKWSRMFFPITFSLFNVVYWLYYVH
The experiment in a line: Positive allosteric modulation of GABA-A alpha1beta1gamma2S receptor (unknown origin) expressed in Xenopus laevis oocytes assessed as increase in GABA-induced chloride current after 15 mins at -70 mV holding potential by two-microelectrode voltage clamp method. The test is classed as cell-based.

Calls of active or inactive are those of the source.

Turning to `C/C(=C(\C#N)C(N)=O)c1ccc(Cl)cc1Cl`, the EC50 in test [1] turned out to be 44 µM; in test [2], 40 µM.
Consider `CC(CC#N)c1ccc(Cl)cc1Cl` (racemic), for which, in test [1], the EC50 was found to be 120 µM.
On the same count and under the same terms, for `Cl/C(=C\n1cncn1)c1ccc(Cl)cc1Cl` [LORECLEZOLE] the value was 11 µM.
On to `CC1=C2[C@H](/C=C(\C)C(=O)O)CC[C@@H](C)[C@H]2CC1` [VALERENIC ACID], for which the outcome in the test on Mus musculus was Active. Also, in test [1], the EC50 worked out at 19 µM. In test [3], the Activity is -115 pA.
As to `CC(=CC#N)c1ccc(C)cc1Cl` (mixture of isomers), the EC50 in test [1] was found to be 41 µM; in test [4], 271 µM; in test [2], 41 µM.
For the molecule `C/C(=C\C#N)c1ccc(Cl)cc1Cl`, the concentration for a half-maximal effect (EC50) in test [1] came out at 100 µM.

In general, EC50 refers to the concentration that produces a half-maximal response.

(Values after ChEMBL document CHEMBL4308853, “Design, Synthesis, and Pharmacological Evaluation of Novel β2/3 Subunit-Selective γ-Aminobutyric Acid Type A (GABAA) Receptor Modulators” (J Med Chem, 2018).)
